From ChEMBL document CHEMBL5579896, “Discovery of 2-Aryl-4-aminoquinazolin-Based LSD1 Inhibitors to Activate Immune Response in Gastric Cancer” (J Med Chem, 2024)
Calls of active or inactive are those of the source. The calls are words filed in the database; no cut-off is given here.

What was measured:
[1] = system: BGC-823; experiment: Effect on H3K4me2 methylation in LSD1 knockout human BGC-823 cells at 2 to 8 uM by Western blotting analysis; assay type: functional, cell-based; conditions: dose 2-8 µM
[2] = system: BGC-823; experiment: Downregulation of PD-L1 expression in human BGC-823 cells incubated for 5 days by Western blotting analysis; assay type: functional, cell-based; conditions: dose 2-8 µM, time 5.0 day
[3] = system: BGC-823; experiment: Anticancer activity against human BGC-823 cells cocultured with human monocytes assessed as increase in CD3/CD28 activated T-cell killing response incubated for 5 days by microscopic analysis; assay type: functional, cell-based; conditions: dose 2-8 µM, time 5.0 day
[4] = Drug uptake in ICR mouse plasma at 40 mg/kg, po; assay type: ADME, organism-based; conditions: in vivo
[5] = system: MFC; experiment: Antitumor activity against MFC cells implanted in mouse assessed as reduction in Ki67 expression at 10 to 40 mg/kg/day, po administered daily for 2 weeks and measured every 2 days; assay type: functional, organism-based; conditions: dose 10-40 mg/kg/day
[6] = system: MFC; experiment: Downregulation of PD-L1 expression in MFC cells incubated for 5 days by Western blotting analysis; assay type: functional, cell-based; conditions: Mus musculus, dose 2-8 µM, time 5.0 day
[7] = system: MFC; experiment: Antitumor activity against MFC cells implanted in mouse assessed as reduction in tumor size at 10 to 40 mg/kg/day, po administered daily for 2 weeks and measured every 2 days; assay type: functional, organism-based; conditions: dose 10-40 mg/kg/day
[8] = system: BGC-823; experiment: Downregulation of PD-L1 expression in LSD1 knockout human BGC-823 cells at 2 to 8 uM incubated for 5 days by flow cytometry analysis; assay type: functional, cell-based; conditions: dose 2-8 µM, time 5.0 day
[9] = Toxicity in mouse implanted with MFC assessed as reduction in body weight at 10 to 40 mg/kg/day, po administered daily for 2 weeks and measured every 2 days; assay type: organism-based; conditions: in vivo, 336 h, dose 10-40 mg/kg/day
[10] = system: BGC-823; experiment: Effect on H3K4me1 methylation in LSD1 knockout human BGC-823 cells at 2 to 8 uM by Western blotting analysis; assay type: functional, cell-based; conditions: dose 2-8 µM
[11] = system: MFC; experiment: Downregulation of PD-L1 expression in MFC cells implanted in mouse at 10 to 40 mg/kg/day, po administered daily for 2 weeks and measured every 2 days by Western blotting analysis; assay type: functional, organism-based; conditions: dose 10-40 mg/kg/day
[12] = system: BGC-823; experiment: Effect on LSD1 expression in human BGC-823 cells by Western blotting analysis; assay type: functional, cell-based
[13] = target: T1, Amine oxidase [flavin-containing] B (Homo sapiens, UniProt P27338); experiment: Inhibition of MAO-B (unknown origin)
T1 sequence (P27338 whole entry): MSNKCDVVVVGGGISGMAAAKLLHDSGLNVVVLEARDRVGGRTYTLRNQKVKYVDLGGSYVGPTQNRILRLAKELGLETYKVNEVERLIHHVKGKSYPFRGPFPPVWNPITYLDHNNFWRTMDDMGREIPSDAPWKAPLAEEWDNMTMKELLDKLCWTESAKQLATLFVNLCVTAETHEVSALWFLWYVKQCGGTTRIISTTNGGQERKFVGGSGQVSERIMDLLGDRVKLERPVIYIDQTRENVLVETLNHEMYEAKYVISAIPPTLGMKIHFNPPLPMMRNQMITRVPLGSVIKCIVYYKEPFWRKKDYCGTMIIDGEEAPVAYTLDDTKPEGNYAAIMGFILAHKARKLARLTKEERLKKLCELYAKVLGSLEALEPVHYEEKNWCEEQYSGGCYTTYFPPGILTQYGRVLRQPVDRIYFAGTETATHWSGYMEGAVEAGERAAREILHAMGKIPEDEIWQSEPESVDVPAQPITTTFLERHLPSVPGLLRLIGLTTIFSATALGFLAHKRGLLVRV

[14] = system: MFC; experiment: Antitumor activity against MFC cells implanted in mouse assessed as reduction in tumor weight at 10 to 40 mg/kg/day, po administered daily for 2 weeks and measured every 2 days; assay type: functional, organism-based; conditions: dose 10-40 mg/kg/day
[15] = target: T2, Lysine-specific histone demethylase 2 (Homo sapiens) (UniProt Q8NB78); experiment: Inhibition of LSD2 (unknown origin) at 10 uM relative to control
T2 sequence (whole entry): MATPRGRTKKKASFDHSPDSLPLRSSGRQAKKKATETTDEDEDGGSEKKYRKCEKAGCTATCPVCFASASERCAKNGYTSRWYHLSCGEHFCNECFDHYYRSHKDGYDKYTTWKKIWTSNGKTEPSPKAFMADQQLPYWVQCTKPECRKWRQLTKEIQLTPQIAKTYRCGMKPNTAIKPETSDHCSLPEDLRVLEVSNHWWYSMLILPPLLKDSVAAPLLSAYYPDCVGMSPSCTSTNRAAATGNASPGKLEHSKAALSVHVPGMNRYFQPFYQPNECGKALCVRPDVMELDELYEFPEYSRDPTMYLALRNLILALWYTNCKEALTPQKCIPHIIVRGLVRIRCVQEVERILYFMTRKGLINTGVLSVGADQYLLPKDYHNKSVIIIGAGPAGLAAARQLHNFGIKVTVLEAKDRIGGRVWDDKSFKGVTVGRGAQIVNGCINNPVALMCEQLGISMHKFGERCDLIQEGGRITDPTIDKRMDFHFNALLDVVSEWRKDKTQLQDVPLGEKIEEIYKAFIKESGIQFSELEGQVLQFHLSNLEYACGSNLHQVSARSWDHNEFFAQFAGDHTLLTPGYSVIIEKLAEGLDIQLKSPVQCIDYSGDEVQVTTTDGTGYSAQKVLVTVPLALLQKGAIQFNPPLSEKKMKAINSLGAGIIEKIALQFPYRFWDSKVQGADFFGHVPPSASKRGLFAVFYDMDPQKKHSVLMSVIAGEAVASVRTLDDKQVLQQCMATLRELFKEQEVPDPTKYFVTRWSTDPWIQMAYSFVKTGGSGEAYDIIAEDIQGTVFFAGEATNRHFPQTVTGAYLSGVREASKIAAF

[16] = target: Epidermal growth factor receptor (Homo sapiens) (UniProt P00533); experiment: Inhibition of EGFR (unknown origin)
Chain of Epidermal growth factor receptor (Homo sapiens) (P00533 whole entry): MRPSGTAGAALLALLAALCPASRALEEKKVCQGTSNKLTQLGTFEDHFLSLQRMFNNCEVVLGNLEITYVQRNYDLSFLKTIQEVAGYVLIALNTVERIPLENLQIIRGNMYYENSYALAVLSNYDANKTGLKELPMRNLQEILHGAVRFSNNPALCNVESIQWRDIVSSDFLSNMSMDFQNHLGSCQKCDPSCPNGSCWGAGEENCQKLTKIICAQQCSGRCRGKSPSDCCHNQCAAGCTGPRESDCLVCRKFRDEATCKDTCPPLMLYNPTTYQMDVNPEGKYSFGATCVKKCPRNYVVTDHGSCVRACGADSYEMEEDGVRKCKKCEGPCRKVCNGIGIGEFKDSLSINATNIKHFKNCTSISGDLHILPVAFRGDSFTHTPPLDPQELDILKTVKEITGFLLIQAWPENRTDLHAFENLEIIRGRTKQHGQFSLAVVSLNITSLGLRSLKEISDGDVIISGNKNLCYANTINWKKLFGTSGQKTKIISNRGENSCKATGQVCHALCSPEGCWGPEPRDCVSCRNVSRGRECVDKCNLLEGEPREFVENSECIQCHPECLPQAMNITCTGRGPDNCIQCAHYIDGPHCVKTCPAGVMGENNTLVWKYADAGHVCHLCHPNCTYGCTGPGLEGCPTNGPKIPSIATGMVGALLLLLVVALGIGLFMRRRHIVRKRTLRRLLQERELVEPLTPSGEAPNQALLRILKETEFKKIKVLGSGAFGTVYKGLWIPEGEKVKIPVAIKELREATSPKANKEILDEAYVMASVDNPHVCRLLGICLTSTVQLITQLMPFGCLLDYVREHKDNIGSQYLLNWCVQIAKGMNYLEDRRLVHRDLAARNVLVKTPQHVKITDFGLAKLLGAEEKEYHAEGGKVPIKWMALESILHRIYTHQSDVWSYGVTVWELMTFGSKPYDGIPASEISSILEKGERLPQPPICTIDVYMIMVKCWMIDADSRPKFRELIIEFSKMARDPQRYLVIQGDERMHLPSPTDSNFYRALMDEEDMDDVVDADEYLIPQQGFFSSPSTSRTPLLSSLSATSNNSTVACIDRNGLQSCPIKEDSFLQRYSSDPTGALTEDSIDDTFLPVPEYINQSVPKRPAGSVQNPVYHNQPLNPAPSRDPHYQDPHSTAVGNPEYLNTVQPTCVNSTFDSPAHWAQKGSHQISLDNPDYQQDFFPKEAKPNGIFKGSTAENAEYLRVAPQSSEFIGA

[17] = target: T3, Amine oxidase [flavin-containing] A (Homo sapiens, UniProt P21397); experiment: Inhibition of MAO-A (unknown origin)
T3 sequence (P21397 whole entry): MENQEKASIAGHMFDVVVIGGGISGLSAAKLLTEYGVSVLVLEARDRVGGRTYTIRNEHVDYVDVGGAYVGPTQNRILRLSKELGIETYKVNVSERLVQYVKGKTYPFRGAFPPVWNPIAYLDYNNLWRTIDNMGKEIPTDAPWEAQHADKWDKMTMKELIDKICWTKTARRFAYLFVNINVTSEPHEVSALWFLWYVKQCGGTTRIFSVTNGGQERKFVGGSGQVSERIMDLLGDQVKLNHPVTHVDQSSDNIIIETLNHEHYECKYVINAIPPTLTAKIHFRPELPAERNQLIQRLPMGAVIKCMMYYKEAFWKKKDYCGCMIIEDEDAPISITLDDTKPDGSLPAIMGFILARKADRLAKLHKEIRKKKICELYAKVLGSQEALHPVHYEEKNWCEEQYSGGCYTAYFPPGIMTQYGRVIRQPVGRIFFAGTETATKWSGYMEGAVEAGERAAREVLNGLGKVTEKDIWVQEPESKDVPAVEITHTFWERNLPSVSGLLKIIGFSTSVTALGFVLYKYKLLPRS

[18] = Half-life in ICR mouse at 40 mg/kg, po measured upto 24 hrs by LC-MS/MS analysis; assay type: ADME, organism-based; conditions: in vivo
[19] = target: T4, Lysine-specific histone demethylase 2 (Homo sapiens, UniProt Q8NB78); experiment: Inhibition of LSD2 (unknown origin)
T4 sequence (Q8NB78 whole entry): T2 sequence (whole entry)

Drug uptake [4]: Active
IC50 [13]: > 10 µM
inhibition [15]: < 10%
inhibition [16]: inactive
IC50 [17]: > 10 µM
half-life [18]: 1.22 h
IC50 [19]: > 10 µM
Compound: CCN(CC)c1ccc(Nc2nc(-c3ccc(S(C)(=O)=O)cc3)nc3ccccc23)cc1
Activity [1]: inactive
Activity [2]: Dose-Dependent Effect
Activity [3]: Dose-Dependent Effect
Activity [5]: Active
Activity [6]: Dose-Dependent Effect
Activity [7]: Active
Activity [8]: inactive
Activity [9]: Non-Toxic
Activity [10]: inactive
Activity [11]: Active
Activity [12]: inactive
Activity [14]: Active
